Experiment [1] concerns primary OL (oligodendrocyte) cultures exposed to oxygen-glucose deprivation. Description: LDH assay of OGD-induced OL death. Format: cell-based, mouse. How it is done:
Primary OL cultures were prepared from cortices of newborn C57BL/6 on postnatal day 0 (P0) to postnatal day 1 (P1), and/or TLR2 (−/−) mouse, according to the method reported in Journal of Visualized Experiment by O'Meara R. After 9-10 days in vitro, confluent mixed glial cultures were obtained. The mixed glial cultures were shaken at a temperature of about 37° C. for about 1 hour at a speed of about 200 rpm, so as to remove microglia. Afterwards, a second cycle of shaking was then performed at a temperature of about 37° C. for about 18 hours at a speed of about 250 rpm, so as to remove OLs from astrocyte monolayer. The cell suspensions obtained therefrom was plated on a bacterial grade Petri dish for about 1 hour to separate OLs from remaining microglia and astrocytes. […]
For quantification of OGD-induced OL death, LDH assay was performed using an assay kit (Takara Bio, Inc., Madison, Wis.) to measure LDH generated in a bathing medium in association with damaged OL at 24 hours after the onset of OGD challenge. The LDH level corresponding to typical cell death was determined in sister cultures exposed 1.5% Triton X-100 for 24 hours (complete cell death, CD). Baseline (BL) LDH levels were determined in a condition of only medium without OLs. Percentage of cell death in each experimental condition was calculated using a following formula. {% of OL death=(experimental value−BL)×100/(CD−BL)}

The test system is the same in experiment [2]. Briefly: TUNEL staining of OGD-induced OL death. Format: cell-based, mouse. Conditions: Pam3CSK4 1 μg/ml added after 2 hours OGD; FIG. 5. How it is done: Primary OL cultures were prepared from cortices of newborn C57BL/6 on postnatal day 0 (P0) to postnatal day 1 (P1), and/or TLR2 (−/−) mouse, according to the method reported in Journal of Visualized Experiment by O'Meara R. After 9-10 days in vitro, confluent mixed glial cultures were obtained. The mixed glial cultures were shaken at a temperature of about 37° C. for about 1 hour at a speed of about 200 rpm, so as to remove microglia. Afterwards, a second cycle of shaking was then performed at a temperature of about 37° C. for about 18 hours at a speed of about 250 rpm, so as to remove OLs from astrocyte monolayer. The cell suspensions obtained therefrom was plated on a bacterial grade Petri dish for about 1 hour to separate OLs from remaining microglia and astrocytes. Purified OLs were plated on a poly-D-lysine coated 12 well (1.5×10^5 cells/well) or 96 well (1.5×10^4 cells/well) or on a 9 mm coverslip (1.0×10^4 cells/coverslip).
For OGD challenge, the purified OLs were cultured for about 1 day in a serum-free differentiation medium, washed with PBS three times, and then, transferred to an anaerobic chamber (Forma Scientific, Marietta, Ohio). […] The cells were exposed to OGD for about 2 hours, and then, transferred to a normoxic chamber. […]

For Pam3CSK4, the “OGD-induced OL death (LDH release)” value in experiment [1] (Pam3CSK4 1 μg/ml added after 2 hours OGD, LDH measured 24 hours after onset of OGD, FIG. 3) was “reduced the extent of OGD-induced OL death”. For the same substance, the “OGD-induced OL death (summary statement)” value in experiment [1] (TLR2 agonist applied after OGD to OLs cultured from WT mouse, readout not given) is “substantially reduced OGD-induced OL death”. In addition, the “OGD-induced OL death (TUNEL staining)” value in experiment [2] is recorded as “reduced the extent of OGD-induced OL death”.

These data come from patent publication US9939451B2, “Biomarker for detecting white matter stroke, containing toll-like receptor 2, and medical use of toll-like receptor 2” (AJOU UNIVERSITY INDUSTRY—ACADEMIC COOPERATION FOUNDATION, priority 2013, dated 2018).
